Assay results reported in patent US10519153B2, “Fused imidazo-piperidine JAK inhibitors” (THERAVANCE BIOPHARMA R&D IP, LLC, priority 2017, dated 2019).

Tested on: IL-6 stimulated pSTAT3 in CD3+ T cells
Assay: Inhibition of IL-6 stimulated pSTAT3 in CD3+ T cells
Assay type: cell-based, human
Text: Assay 10: Cellular JAK Potency Assay: Inhibition of IL-6 Stimulated pSTAT3 in CD3+ T Cells
A protocol analogous to that of Assay 9 was used to determine the potency of the test compound for inhibition of interleuken-6 (IL-6) stimulated STAT3 phosphorylation. An Alexa Fluor 647 conjugated anti-pSTAT3 antibody (pY705, Clone 4/P, BD Biosciences) was used to detect STAT3 phosphorylation.

SMILES	inhibition of IL-6 signaling (in words)
CCCN1Cc2[nH]c(-c3n[nH]c4cc(-c5cc(F)c(O)cc5CC)ccc34)nc2C[C@H]1C(=O)N1C[C@@H]2C[C@H]1CN2C [Example 1, ((S)-2-(6-(2-ethyl-5-fluoro-4-hydroxyphenyl)-1H-indazol-3-yl)-5-propyl-4,5,6,7-tetrahydro-3H-imidazo[4,5-c]pyridin-6-yl)((1S,4S)-5-methyl-2,5-diazabicyclo-[2.2.1]heptan-2-yl)methanone]	inhibit IL-6 signaling
CCc1cc(O)c(F)cc1-c1ccc2c(-c3nc4c([nH]3)CN(C(C)C)[C@H](C(=O)N3CC[C@H](N(C)C)C3)C4)n[nH]c2c1 [Example 3]	inhibit IL-6 signaling
